Consider two compounds from ChEMBL document CHEMBL1127735, “Importance of parallel vectors and "hydrophobic collapse" of the aligned aromatic rings: discovery of a potent substance P antagonist” (J Med Chem, 1994).

Structures are written as SMILES.

A word on the Ki: it is the dissociation constant of the complex between target and ligand, obtained from inhibition or displacement.

For this assay, the target named is Substance-P receptor (Homo sapiens, UniProt P25103). The assay is described as follows: In vitro binding affinity against substance P (NK-1) receptor in human IM-9 cell using [125I]BH-SP. The format is cell-based.
Substance-P receptor, sequence (P25103 whole entry): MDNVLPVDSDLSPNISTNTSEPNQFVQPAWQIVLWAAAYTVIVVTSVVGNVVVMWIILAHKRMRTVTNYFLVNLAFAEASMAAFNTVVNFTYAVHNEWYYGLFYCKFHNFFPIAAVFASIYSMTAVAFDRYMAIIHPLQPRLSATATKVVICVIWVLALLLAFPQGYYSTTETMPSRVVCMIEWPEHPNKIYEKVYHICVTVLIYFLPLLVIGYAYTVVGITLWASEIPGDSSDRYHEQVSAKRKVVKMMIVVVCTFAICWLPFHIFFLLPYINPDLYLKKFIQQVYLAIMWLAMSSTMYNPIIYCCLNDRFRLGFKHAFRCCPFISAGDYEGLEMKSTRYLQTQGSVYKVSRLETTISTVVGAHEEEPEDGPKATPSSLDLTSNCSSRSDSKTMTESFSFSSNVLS

In turn, `COc1ccccc1[C@@H]1CC[C@@]2(CCCN[C@H]2c2ccccc2)NC1` gave an inhibitory constant (Ki) of 2 nM.

`COc1ccccc1[C@@H]1CC[C@@]2(CCCN[C@H]2c2ccccc2)N1` returned an inhibitory constant (Ki) above 10000 nM.
